Data from ChEMBL document CHEMBL1131676, “The discovery of orally available thrombin inhibitors: optimisation of the P1 pharmacophore” (Bioorg Med Chem Lett, 1999).

Key:
Prothrombin = Prothrombin (Homo sapiens, UniProt P00734); test: Binding affinity to human thrombin
[1] = Effect on doubling of human clotting time assay expressed as Activated partial thromboplastin time value (APTT); type: functional

Ki (Prothrombin) [nM] | SMILES | APTT [1] [µM]
575 | CCNc1ccc(C[C@H](NS(=O)(=O)c2cnccc2N[C@H](CO)Cc2ccccc2)C(=O)N2CCC(CCF)CC2)cc1 | 17.4
43 | O=C([C@H](Cc1ccc2c(c1)OCO2)NS(=O)(=O)c1cnccc1N[C@H](CO)Cc1ccccc1)N1CCC(CCF)CC1 | 6.39
11800 | O=C([C@@H](NS(=O)(=O)c1cnccc1N[C@H](CO)Cc1ccccc1)C1CCCCC1)N1CCC(CCF)CC1 | –
11900 | CC(C)C[C@H](NS(=O)(=O)c1cnccc1N[C@H](CO)Cc1ccccc1)C(=O)N1CCC(CCF)CC1 | –
82 | O=C([C@H](Cc1ccc(O)c(O)c1)NS(=O)(=O)c1cnccc1N[C@H](CO)Cc1ccccc1)N1CCC(CCF)CC1 | 6.17
280 | O=C([C@H](Cc1cscn1)NS(=O)(=O)c1cnccc1N[C@H](CO)Cc1ccccc1)N1CCC(CCF)CC1 | 9.17
100 | O=C([C@H](Cc1ccccc1)NS(=O)(=O)c1cnccc1N[C@H](CO)Cc1ccccc1)N1CCC(CCF)CC1 | 11
69 | O=C([C@H](Cc1ccc2ccccc2c1)NS(=O)(=O)c1cnccc1N[C@H](CO)Cc1ccccc1)N1CCC(CCF)CC1 | 26
41 | O=C([C@H](Cc1ccc(O)cc1)NS(=O)(=O)c1cnccc1N[C@H](CO)Cc1ccccc1)N1CCC(CCF)CC1 | 1.91
1800 | NCCCC[C@H](NS(=O)(=O)c1cnccc1N[C@H](CO)Cc1ccccc1)C(=O)N1CCC(CCF)CC1 | –
1540 | O=C([C@@H](NS(=O)(=O)c1cnccc1N[C@H](CO)Cc1ccccc1)c1ccncc1)N1CCC(CCF)CC1 | –
36 | COc1ccc(C[C@H](NS(=O)(=O)c2cnccc2N[C@H](CO)Cc2ccccc2)C(=O)N2CCC(CCF)CC2)cc1 | 8.013
1610 | O=C([C@H](Cc1cccnc1)NS(=O)(=O)c1cnccc1N[C@H](CO)Cc1ccccc1)N1CCC(CCF)CC1 | 20.33
49900 | C[C@H](NS(=O)(=O)c1cnccc1N[C@H](CO)Cc1ccccc1)C(=O)N1CCC(CCF)CC1 | –
81 | O=C([C@H](Cc1ccccn1)NS(=O)(=O)c1cnccc1N[C@H](CO)Cc1ccccc1)N1CCC(CCF)CC1 | 3.87
6510 | CC(C)[C@H](NS(=O)(=O)c1cnccc1N[C@H](CO)Cc1ccccc1)C(=O)N1CCC(CCF)CC1 | –
26 | Nc1cc(C[C@H](NS(=O)(=O)c2cnccc2N[C@H](CO)Cc2ccccc2)C(=O)N2CCC(CCF)CC2)ccc1O | 1.53

SMILES | Ki (Prothrombin) [nM] | APTT [1] [µM]
N=C(N)NCC[C@H](NS(=O)(=O)c1cnccc1N[C@H](CO)Cc1ccccc1)C(=O)N1CCC(CCF)CC1 | 16 | 0.75
CNc1ccc([C@H](NS(=O)(=O)c2cnccc2N[C@H](CO)Cc2ccccc2)C(=O)N2CCC(CCF)CC2)cc1 | 12 | 4.08
